# Tested on: redroot pigweed
# Test: Test Example 5: herbicidal effect by foliage application, plastic box (Table 20, symbol N)
# Type: in vivo, redroot pigweed (Amaranthus retroflexus)
# Details: foliage application, AAH 320 g/ha, three weeks after application
# In short: (§1)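 Post-emergence foliar test in sterilized diluvial soil. Compound applied as water-diluted emulsion at a predetermined rate to 14-day-old plants; evaluation at three weeks.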
row,SMILES,"N: redroot pigweed, herbicidal effect"
1,CCCC(=O)Oc1c(OC)nn(C)c(=O)c1-c1c(-c2ccc(F)cc2OC)sc2ccccc12 [1-177],5 (Herbicidal rate of 90% or more (almost completely withered))

# Tested on: chickweed
# Test: Test Example 5: herbicidal effect by foliage application, plastic box (Table 20, symbol P)
# Type: in vivo, common chickweed (Stellaria media)
# Details: foliage application, AAH 320 g/ha, three weeks after application
# In short: as §1
row,SMILES,"P: chickweed, herbicidal effect"
1,CCCC(=O)Oc1c(OC)nn(C)c(=O)c1-c1c(-c2ccc(F)cc2OC)sc2ccccc12 [1-177],5 (Herbicidal rate of 90% or more (almost completely withered))

# Tested on: chickweed
# Test: Test Example 4: herbicidal effect by soil treatment (Table 19, symbol P)
# Type: in vivo, common chickweed (Stellaria media)
# Details: AAH 320 g/ha
# In short: (§2)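 Emulsion of test compound, water-diluted to predetermined amount, sprayed on soil after sowing (seed depth ~1.5 cm, sterilized diluvial soil). Greenhouse, 25–30° C. Effect graded at three weeks post-spray.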
row,SMILES,"P: chickweed, herbicidal effect rating"
1,CCCC(=O)Oc1c(OC)nn(C)c(=O)c1-c1c(-c2ccc(F)cc2OC)sc2ccccc12 [1-177],5 (Herbicidal rate of 90% or more (almost completely withered))

# Tested on: southern crabgrass
# Test: Test Example 5: herbicidal effect by foliage application, plastic box (Table 20, symbol F)
# Type: in vivo, southern crabgrass (Digitaria ciliaris)
# Details: foliage application, AAH 320 g/ha, three weeks after application
# In short: as §1
row,SMILES,"F: southern crabgrass, herbicidal effect"
1,CCCC(=O)Oc1c(OC)nn(C)c(=O)c1-c1c(-c2ccc(F)cc2OC)sc2ccccc12 [1-177],3 (Herbicidal rate of 40% or more and less than 70%)

# Tested on: blackgrass
# Test: Test Example 4: herbicidal effect by soil treatment (Table 19, symbol J)
# Type: in vivo, blackgrass (Alopecurus myosuroides)
# Details: AAH 320 g/ha
# In short: as §2
row,SMILES,"J: blackgrass, herbicidal effect rating"
1,CCCC(=O)Oc1c(OC)nn(C)c(=O)c1-c1c(-c2ccc(F)cc2OC)sc2ccccc12 [1-177],0 (Herbicidal rate of 5% or less (almost no effect))

# Tested on: lambsquarters
# Test: Test Example 5: herbicidal effect by foliage application, plastic box (Table 20, symbol O)
# Type: in vivo, lambsquarters (Chenopodium album)
# Details: foliage application, AAH 320 g/ha, three weeks after application
# In short: as §1
row,SMILES,"O: lambsquarters, herbicidal effect"
1,CCCC(=O)Oc1c(OC)nn(C)c(=O)c1-c1c(-c2ccc(F)cc2OC)sc2ccccc12 [1-177],4 (Herbicidal rate of 70% or more and less than 90%)

# Tested on: windgrass
# Test: Test Example 5: herbicidal effect by foliage application, plastic box (Table 20, symbol L)
# Type: in vivo, windgrass (Apera spica-venti)
# Details: foliage application, AAH 320 g/ha, three weeks after application
# In short: as §1
row,SMILES,"L: windgrass, herbicidal effect"
1,CCCC(=O)Oc1c(OC)nn(C)c(=O)c1-c1c(-c2ccc(F)cc2OC)sc2ccccc12 [1-177],4 (Herbicidal rate of 70% or more and less than 90%)

# Tested on: lambsquarters
# Test: Test Example 4: herbicidal effect by soil treatment (Table 19, symbol O)
# Type: in vivo, lambsquarters (Chenopodium album)
# Details: AAH 320 g/ha
# In short: as §2
row,SMILES,"O: lambsquarters, herbicidal effect rating"
1,CCCC(=O)Oc1c(OC)nn(C)c(=O)c1-c1c(-c2ccc(F)cc2OC)sc2ccccc12 [1-177],2 (Herbicidal rate of 20% or more and less than 40%)

# Tested on: green foxtail
# Test: Test Example 5: herbicidal effect by foliage application, plastic box (Table 20, symbol G)
# Type: in vivo, green foxtail (Setaria viridis)
# Details: foliage application, AAH 320 g/ha, three weeks after application
# In short: as §1
row,SMILES,"G: green foxtail, herbicidal effect"
1,CCCC(=O)Oc1c(OC)nn(C)c(=O)c1-c1c(-c2ccc(F)cc2OC)sc2ccccc12 [1-177],5 (Herbicidal rate of 90% or more (almost completely withered))

# Tested on: barnyard grass
# Test: Test Example 3: herbicidal effect by foliage application, Wagner pot (Table 18, symbol H)
# Type: in vivo, barnyard grass (Echinochloa crus-galli)
# Details: 320 g/ha
# In short: (§3)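 Plants were sown in alluvial soil held under 0.1–0.5 cm standing water and grown 14 days in a greenhouse at 25–30 °C. An emulsifiable formulation, water-diluted to the set dose, was then sprayed onto the foliage, and effects were scored three weeks later using previously defined criteria.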
row,SMILES,"herbicidal effect on H (barnyard grass), rating 0-5"
1,CCCC(=O)Oc1c(OC)nn(C)c(=O)c1-c1c(-c2ccc(F)cc2OC)sc2ccccc12 [1-177],4 (Herbicidal rate of 70% or more and less than 90%)

# Tested on: barnyard grass
# Test: Test Example 5: herbicidal effect by foliage application, plastic box (Table 20, symbol H)
# Type: in vivo, barnyard grass (Echinochloa crus-galli)
# Details: foliage application, AAH 320 g/ha, three weeks after application
# In short: as §1
row,SMILES,"H: barnyard grass, herbicidal effect"
1,CCCC(=O)Oc1c(OC)nn(C)c(=O)c1-c1c(-c2ccc(F)cc2OC)sc2ccccc12 [1-177],4 (Herbicidal rate of 70% or more and less than 90%)

# Tested on: velvetleaf
# Test: Test Example 5: herbicidal effect by foliage application, plastic box (Table 20, symbol M)
# Type: in vivo, velvetleaf (Abutilon theophrasti)
# Details: foliage application, AAH 320 g/ha, three weeks after application
# In short: as §1
row,SMILES,"M: velvetleaf, herbicidal effect"
1,CCCC(=O)Oc1c(OC)nn(C)c(=O)c1-c1c(-c2ccc(F)cc2OC)sc2ccccc12 [1-177],4 (Herbicidal rate of 70% or more and less than 90%)

# Tested on: wild oat
# Test: Test Example 4: herbicidal effect by soil treatment (Table 19, symbol I)
# Type: in vivo, wild oat (Avena fatua)
# Details: AAH 320 g/ha
# In short: as §2
row,SMILES,"I: wild oat, herbicidal effect rating"
1,CCCC(=O)Oc1c(OC)nn(C)c(=O)c1-c1c(-c2ccc(F)cc2OC)sc2ccccc12 [1-177],3 (Herbicidal rate of 40% or more and less than 70%)

# Tested on: Italian ryegrass
# Test: Test Example 5: herbicidal effect by foliage application, plastic box (Table 20, symbol K)
# Type: in vivo, Italian ryegrass (Lolium multiflorum)
# Details: foliage application, AAH 320 g/ha, three weeks after application
# In short: as §1
row,SMILES,"K: Italian ryegrass, herbicidal effect"
1,CCCC(=O)Oc1c(OC)nn(C)c(=O)c1-c1c(-c2ccc(F)cc2OC)sc2ccccc12 [1-177],1 (Herbicidal rate of 5% or more and less than 20%)

# Tested on: redroot pigweed
# Test: Test Example 4: herbicidal effect by soil treatment (Table 19, symbol N)
# Type: in vivo, redroot pigweed (Amaranthus retroflexus)
# Details: AAH 320 g/ha
# In short: as §2
row,SMILES,"N: redroot pigweed, herbicidal effect rating"
1,CCCC(=O)Oc1c(OC)nn(C)c(=O)c1-c1c(-c2ccc(F)cc2OC)sc2ccccc12 [1-177],5 (Herbicidal rate of 90% or more (almost completely withered))

# Tested on: velvetleaf
# Test: Test Example 4: herbicidal effect by soil treatment (Table 19, symbol M)
# Type: in vivo, velvetleaf (Abutilon theophrasti)
# Details: AAH 320 g/ha
# In short: as §2
row,SMILES,"M: velvetleaf, herbicidal effect rating"
1,CCCC(=O)Oc1c(OC)nn(C)c(=O)c1-c1c(-c2ccc(F)cc2OC)sc2ccccc12 [1-177],0 (Herbicidal rate of 5% or less (almost no effect))

# Tested on: barnyard grass
# Test: Test Example 4: herbicidal effect by soil treatment (Table 19, symbol H)
# Type: in vivo, barnyard grass (Echinochloa crus-galli)
# Details: AAH 320 g/ha
# In short: as §2
row,SMILES,"H: barnyard grass, herbicidal effect rating"
1,CCCC(=O)Oc1c(OC)nn(C)c(=O)c1-c1c(-c2ccc(F)cc2OC)sc2ccccc12 [1-177],3 (Herbicidal rate of 40% or more and less than 70%)

# Tested on: windgrass
# Test: Test Example 4: herbicidal effect by soil treatment (Table 19, symbol L)
# Type: in vivo, windgrass (Apera spica-venti)
# Details: AAH 320 g/ha
# In short: as §2
row,SMILES,"L: windgrass, herbicidal effect rating"
1,CCCC(=O)Oc1c(OC)nn(C)c(=O)c1-c1c(-c2ccc(F)cc2OC)sc2ccccc12 [1-177],0 (Herbicidal rate of 5% or less (almost no effect))

# Tested on: green foxtail
# Test: Test Example 4: herbicidal effect by soil treatment (Table 19, symbol G)
# Type: in vivo, green foxtail (Setaria viridis)
# Details: AAH 320 g/ha
# In short: as §2
row,SMILES,"G: green foxtail, herbicidal effect rating"
1,CCCC(=O)Oc1c(OC)nn(C)c(=O)c1-c1c(-c2ccc(F)cc2OC)sc2ccccc12 [1-177],5 (Herbicidal rate of 90% or more (almost completely withered))

# Tested on: persian speedwell
# Test: Test Example 4: herbicidal effect by soil treatment (Table 19, symbol R)
# Type: in vivo, Persian speedwell (Veronica persica)
# Details: AAH 320 g/ha
# In short: as §2
row,SMILES,"R: persian speedwell, herbicidal effect rating"
1,CCCC(=O)Oc1c(OC)nn(C)c(=O)c1-c1c(-c2ccc(F)cc2OC)sc2ccccc12 [1-177],4 (Herbicidal rate of 70% or more and less than 90%)

# Tested on: persian speedwell
# Test: Test Example 5: herbicidal effect by foliage application, plastic box (Table 20, symbol R)
# Type: in vivo, Persian speedwell (Veronica persica)
# Details: foliage application, AAH 320 g/ha, three weeks after application
# In short: as §1
row,SMILES,"R: persian speedwell, herbicidal effect"
1,CCCC(=O)Oc1c(OC)nn(C)c(=O)c1-c1c(-c2ccc(F)cc2OC)sc2ccccc12 [1-177],4 (Herbicidal rate of 70% or more and less than 90%)

# Tested on: rice flat sedge
# Test: Test Example 3: herbicidal effect by foliage application, Wagner pot (Table 18, symbol E)
# Type: in vivo, rice flat sedge (Cyperus iria)
# Details: 320 g/ha
# In short: as §3
row,SMILES,"herbicidal effect on E (rice flat sedge), rating 0-5"
1,CCCC(=O)Oc1c(OC)nn(C)c(=O)c1-c1c(-c2ccc(F)cc2OC)sc2ccccc12 [1-177],4 (Herbicidal rate of 70% or more and less than 90%)

# Tested on: wild oat
# Test: Test Example 5: herbicidal effect by foliage application, plastic box (Table 20, symbol I)
# Type: in vivo, wild oat (Avena fatua)
# Details: foliage application, AAH 320 g/ha, three weeks after application
# In short: as §1
row,SMILES,"I: wild oat, herbicidal effect"
1,CCCC(=O)Oc1c(OC)nn(C)c(=O)c1-c1c(-c2ccc(F)cc2OC)sc2ccccc12 [1-177],3 (Herbicidal rate of 40% or more and less than 70%)

# Tested on: Chinese sprangletop
# Test: Test Example 3: herbicidal effect by foliage application, Wagner pot (Table 18, symbol D)
# Type: in vivo, chinese sprangletop (Leptochloa chinensis)
# Details: 320 g/ha
# In short: as §3
row,SMILES,"herbicidal effect on D (Chinese sprangletop), rating 0-5"
1,CCCC(=O)Oc1c(OC)nn(C)c(=O)c1-c1c(-c2ccc(F)cc2OC)sc2ccccc12 [1-177],0 (Herbicidal rate of 5% or less (almost no effect))

# Tested on: Italian ryegrass
# Test: Test Example 4: herbicidal effect by soil treatment (Table 19, symbol K)
# Type: in vivo, Italian ryegrass (Lolium multiflorum)
# Details: AAH 320 g/ha
# In short: as §2
row,SMILES,"K: Italian ryegrass, herbicidal effect rating"
1,CCCC(=O)Oc1c(OC)nn(C)c(=O)c1-c1c(-c2ccc(F)cc2OC)sc2ccccc12 [1-177],0 (Herbicidal rate of 5% or less (almost no effect))

# Tested on: blackgrass
# Test: Test Example 5: herbicidal effect by foliage application, plastic box (Table 20, symbol J)
# Type: in vivo, blackgrass (Alopecurus myosuroides)
# Details: foliage application, AAH 320 g/ha, three weeks after application
# In short: as §1
row,SMILES,"J: blackgrass, herbicidal effect"
1,CCCC(=O)Oc1c(OC)nn(C)c(=O)c1-c1c(-c2ccc(F)cc2OC)sc2ccccc12 [1-177],4 (Herbicidal rate of 70% or more and less than 90%)

# Tested on: southern crabgrass
# Test: Test Example 4: herbicidal effect by soil treatment (Table 19, symbol F)
# Type: in vivo, southern crabgrass (Digitaria ciliaris)
# Details: AAH 320 g/ha
# In short: as §2
row,SMILES,"F: southern crabgrass, herbicidal effect rating"
1,CCCC(=O)Oc1c(OC)nn(C)c(=O)c1-c1c(-c2ccc(F)cc2OC)sc2ccccc12 [1-177],3 (Herbicidal rate of 40% or more and less than 70%)
